Test results published in PubChem BioAssay (NCI).
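A five-concentration, 48-hour dose response in 96-well plates underlies each endpoint, interpolated linearly between surrounding concentrations. TGI marks complete inhibition of growth.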

Columns and labels:
Assay in all cases: NCI tumour cell line growth inhibition, 48 h
K-562 leukemia = test system: K-562 leukemia
MCF7 breast = test system: MCF7 breast
BT-549 breast = test system: BT-549 breast
PC-3 prostate = test system: PC-3 prostate
DU-145 prostate = test system: DU-145 prostate
786-0 renal = test system: 786-0 renal
UO-31 renal = test system: UO-31 renal
KM12 colon = test system: KM12 colon
ACHN renal = test system: ACHN renal
NCI-H23 lung = test system: NCI-H23 lung
HCT-15 colon = test system: HCT-15 colon
SK-MEL-28 melanoma = test system: SK-MEL-28 melanoma
MDA-MB-435 = test system: MDA-MB-435
RXF 393 renal = test system: RXF 393 renal
SR leukemia = test system: SR leukemia
SNB-75 CNS = test system: SNB-75 CNS
OVCAR-8 ovarian = test system: OVCAR-8 ovarian
IGROV1 ovarian = test system: IGROV1 ovarian
HOP-62 NSCLC = test system: HOP-62 NSCLC
MDA-N = test system: MDA-N
SF-539 CNS = test system: SF-539 CNS
EKVX NSCLC = test system: EKVX NSCLC
A498 renal = test system: A498 renal
MOLT-4 leukemia = test system: MOLT-4 leukemia
NCI/ADR-RES ovarian = test system: NCI/ADR-RES ovarian
OVCAR-3 ovarian = test system: OVCAR-3 ovarian
SNB-19 CNS = test system: SNB-19 CNS
NCI-H460 lung = test system: NCI-H460 lung
COLO 205 colon = test system: COLO 205 colon
SK-MEL-5 melanoma = test system: SK-MEL-5 melanoma
A549 NSCLC = test system: A549 NSCLC
T-47D breast = test system: T-47D breast
HS 578T breast = test system: HS 578T breast
UACC-62 melanoma = test system: UACC-62 melanoma
CCRF-CEM leukemia = test system: CCRF-CEM leukemia
HCT-116 colon = test system: HCT-116 colon
M14 melanoma = test system: M14 melanoma
SF-295 CNS = test system: SF-295 CNS
UACC-257 melanoma = test system: UACC-257 melanoma
SN12C renal = test system: SN12C renal
HL-60(TB) leukemia = test system: HL-60(TB) leukemia
TK-10 renal = test system: TK-10 renal
U251 CNS = test system: U251 CNS
CAKI-1 renal = test system: CAKI-1 renal
OVCAR-5 ovarian = test system: OVCAR-5 ovarian
SK-MEL-2 melanoma = test system: SK-MEL-2 melanoma
HT29 colon = test system: HT29 colon
RPMI-8226 leukemia = test system: RPMI-8226 leukemia
NCI-H226 lung = test system: NCI-H226 lung
MDA-MB-231 breast = test system: MDA-MB-231 breast
SW-620 colon = test system: SW-620 colon
SF-268 CNS = test system: SF-268 CNS
NCI-H522 lung = test system: NCI-H522 lung
LOX IMVI melanoma = test system: LOX IMVI melanoma
SK-OV-3 ovarian = test system: SK-OV-3 ovarian
MALME-3M melanoma = test system: MALME-3M melanoma
OVCAR-4 ovarian = test system: OVCAR-4 ovarian
HCC-2998 colon = test system: HCC-2998 colon
HOP-92 NSCLC = test system: HOP-92 NSCLC

Measured: TGI

Cc1nc2c(=O)[nH]ncc2[nH]1
not listed: NCI-H522 lung | LOX IMVI melanoma | SK-OV-3 ovarian | MALME-3M melanoma | OVCAR-4 ovarian | HCC-2998 colon | HOP-92 NSCLC
> 100 µM: all other assays above

C=C(C)c1cc(C(C)(C)C)cc(C(=C)C)c1S(C)(=O)=O
not listed: RXF 393 renal | UACC-257 melanoma | HOP-92 NSCLC
> 100 µM: all other assays above

CC1OC(O[C@H]2CC[C@]3(C)[C@H]4CC=C5[C@@H]6[C@@H](C)[C@H](C)CC[C@]6(C(=O)OC6OC(CO)C(O)C(O)C6O)CC[C@@]5(C(=O)O)[C@]4(C)CC[C@H]3C2(C)C)C(O)C(O)C1O (some centres undefined)
not listed: SK-MEL-28 melanoma | IGROV1 ovarian | EKVX NSCLC | A549 NSCLC | HT29 colon | RPMI-8226 leukemia | NCI-H226 lung | MALME-3M melanoma
> 100 µM: all other assays above
